Test results reported in patent US20250041412A1, “TRANSMEMBRANE NEOANTIGENIC PEPTIDES” (INSTITUT CURIE, priority 2021, published 2025).
“Also recorded” adds a separate entry of the source.

B1: chimeric transcript-derived peptide MLMKTVWQA (peptide)
peptide: MLMKTVWQA
notes: Synthetic peptide; also called peptide 80
B2: chimeric transcript-derived peptide RLADHLSFC (peptide)
peptide: RLADHLSFC
notes: Synthetic peptide; also called peptide 64

Key:
CD8+ T cells [1] = assay: Priming of naive CTLs by peptide-loaded moDCs, two-colour tetramer staining (immunogenicity); type: cell-based, human; conditions: for expansion of specific CD8+ T cells (tetramer staining): one HLA-A2+ healthy donor, at least one magnitude order more tetramer positive cells than control without peptides; for specific CD8+ T expansions (immunogenicity): total of 6 HLA-A2+ healthy donors, FIG. 12A
Procedure: Priming of naïve CTLs. PBMCs were obtained by Ficoll gradient separation from HLA-A2+healthy blood donors. CD14+, CD4+ and CD8+ cells were purified by positive selection using magnetic beads (Miltenyi Biotec). While CD4+ and CD8+ T cells were cryopreserved until the experiment day, CD14+ fraction was cultured in the presence of IL-4 (50 ng/mL) and GM-CSF (10 ng/mL) at 10^6 cells/mL during 5 days to obtain moDCs. After this period of time, the moDCs were maturated with LPS and incubated with synthetic ER-derived peptides at a final concentration of 1 μg/mL for 2 hours. Finally, peptide-loaded moDCs were co-cultured with autologous CD4+ and CD8+ T cells in culture medium supplemented with IL-2 (10 U/ml) and IL-7 (100 ng/ml). The ER-derived peptide stimulation of specific CD8+CTL populations was assessed by MHC-I tetramer staining by flow cytometry using a combination of two-color tetramer for each peptide.
(§1) Tetramer Staining. Cells were resuspended in PBS, stained with Live/Dead Aqua-405 nm (ThermoFisher) during 20 minutes at 4° C. and washed once. After that, cells were resuspended in PBS-1% BSA containing the mix of SA-coupled tetramers and incubated in the dark at room temperature during 20 minutes. Without further washing, surface antibodies were added in PBS-1% BSA and cells were incubated 20 minutes in the dark at 4° C. Surface antibodies were a combination of anti-CD3-BV650+anti-CD8-PECy7 in combination with anti-CCR7-AF700+anti-CD45RA-BUV395 when required. Finally, cells were washed twice and resuspended in FACS buffer for flow cytometry analysis.
Priming assays were thus performed to test the ability of identified peptides to expand specific cytotoxic T cells. PBMCs from HLA-A2+healthy donors were used to generate monocyte derived-DCs (moDCs). After loading the moDCs with a mix of synthetic peptides, autologous co-culture was performed with CD4+ and CD8+ T cells. Finally, the expansion of specific CD8+ T cells was analysed by flow cytometry using two-colours tetramer staining. As a control of specific expansion, the co-culture was performed in the absence of peptides.
The same experiment was performed in order to evaluate the response in additional 5 donors. […] As a positive of expansions, mutated Melan-A peptide ([…]) were used.

CD8+ T cells [2] = assay: Tetramer staining of CD8+ T cells from LUAD patient samples (TILs, tumor, juxta tumor, lymph nodes, blood); type: cell-based, human; conditions: TILs from LUAD patients expanded with peptide mix + IL-2 or IL-2 only
Procedure: as §1
Tissues and Blood samples. […]
Tumor infiltrating lymphocytes (TILs) cultures. […] Cells were feed/split as necessary during 15-20 days and cryopreserve or analyzed for tetramer staining.
In a first set of experiments tumor infiltrating lymphocytes (TILs) expanded with a mix of TE-derived peptides and Il-2, or only with Il-2, were analyzed by tetramer staining. […]
Using this strategy, CD8+ T cells present in Tumor, juxta-tumor, invaded lymph-nodes and blood derived from LUAD patient samples were thus analyzed. The cell phenotype was determined based on the expression of surface markers CCR7 and CD45RA for Naïve (CCR7+CD45+), Central Memory (CM, CCR7+CD45RA−) Effector Memory (EM, CCR7−CD45−) and Terminal Effectors (TE, CCR7−CD45+) T cells. […]

[3] = biological target: T1, HLA-A2 molecule (HLA-A*02:01), recombinant monomer (human); assay: HLA-A2 monomer stabilisation and tetramer formation with synthetic peptide, flow cytometry with PE anti-b2m; positive control CMV peptide
T1 construct: Peptide-free monomer that is incubated with a synthetic peptide for 48 h at 18 C; also called HLA-A2 allele; HLA-A2 monomers

Molecule	specific CD8+ T expansions (immunogenicity) (CD8+ T cells [1])	also measured
YLWTTFFPL	specific CD8+ T expansions	expansion of specific CD8+ T cells (tetramer staining) (CD8+ T cells [1]): expand specific CD8+ T cells
LLHLESFLV	specific CD8+ T expansions	–
GLPSHVELA	specific CD8+ T expansions; also recorded: immunogenic	CD8+ T cells / TILs recognizing the peptide (tetramer positive) (CD8+ T cells [2]): found TILs recognizing peptide
FLIVAEILI	–	expansion of specific CD8+ T cells (tetramer staining) (CD8+ T cells [1]): expand specific CD8+ T cells
VLMWTMAHL	specific CD8+ T expansions	–
MLVTWELAL	specific CD8+ T expansions	–
GLLNISHTA	specific CD8+ T expansions	–
LLDRFGYHV	specific CD8+ T expansions	–
FLGTRVTRV	specific CD8+ T expansions	–
SLMQSGSPV	specific CD8+ T expansions	–
RLADHLSFC	specific CD8+ T expansions; also recorded: immunogenic	expansion of specific CD8+ T cells (tetramer staining) (CD8+ T cells [1]): expand specific CD8+ T cells
AILPKANTV	specific CD8+ T expansions	expansion of specific CD8+ T cells (tetramer staining) (CD8+ T cells [1]): expand specific CD8+ T cells
MLMKTVWQA	specific CD8+ T expansions	–
YLPYFLKSL	specific CD8+ T expansions	–
ILSGYGPCV	specific CD8+ T expansions	–
RQAPGFHHA	specific CD8+ T expansions	–

Molecule	specific CD8+ T expansions (immunogenicity) (CD8+ T cells [1])	also measured
AMDGKELSL	specific CD8+ T expansions	–
ILTASITSI	specific CD8+ T expansions	–
LLTSWHLYL	specific CD8+ T expansions	–
ILHSLVTGV	specific CD8+ T expansions	–
RLLHLESFL	specific CD8+ T expansions	expansion of specific CD8+ T cells (tetramer staining) (CD8+ T cells [1]): expand specific CD8+ T cells
VLLTNTIWL	specific CD8+ T expansions	–
LLGETKVYV	specific CD8+ T expansions	expansion of specific CD8+ T cells (tetramer staining) (CD8+ T cells [1]): expand specific CD8+ T cells
RLLHLESFL (Synthetic peptide) [chimeric transcript-derived peptide RLLHLESFL]	–	percentage of fluorescence relative to positive control (HLA-A2 tetramer formation) [3]: > 50%
YLPYFLKSL (Synthetic peptide) [chimeric transcript-derived peptide YLPYFLKSL]	–	percentage of fluorescence relative to positive control (HLA-A2 tetramer formation) [3]: > 50%
AILPKANTV (Synthetic peptide) [chimeric transcript-derived peptide AILPKANTV]	–	percentage of fluorescence relative to positive control (HLA-A2 tetramer formation) [3]: > 50%
FLGTRVTRV (Synthetic peptide) [chimeric transcript-derived peptide FLGTRVTRV]	–	percentage of fluorescence relative to positive control (HLA-A2 tetramer formation) [3]: > 50%
FLIVAEILI (Synthetic peptide) [chimeric transcript-derived peptide FLIVAEILI]	–	percentage of fluorescence relative to positive control (HLA-A2 tetramer formation) [3]: > 50%
B1	–	percentage of fluorescence relative to positive control (HLA-A2 tetramer formation) [3]: > 50%
B2	–	percentage of fluorescence relative to positive control (HLA-A2 tetramer formation) [3]: > 50%
AMDGKELSL (Synthetic peptide) [chimeric transcript-derived peptide AMDGKELSL]	–	percentage of fluorescence relative to positive control (HLA-A2 tetramer formation) [3]: > 50%
